Assay results reported in patent publication US20260062422A1 (Halda Therapeutics OpCo, Inc., priority 2022, published 2026).

Assays:
[1] = tested on: T-Rex 293 cell line SC3 cells having increased expression of androgen receptor protein due to exposure to doxycycline; test: Cellular growth inhibition, T-Rex 293 SC3 cells with doxycycline (androgen receptor induced), CellTiter-Glo; format: cell-based; settings: T-Rex 293 SC3 cells with 10 ng/mL doxycycline (increased androgen receptor expression)
How it was run: (§1)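 GI50 came from a four-parameter fit of CellTiter-Glo 2.0 luminescence after 72 h compound exposure (0.5% DMSO, 37 °C), dosing 24 h post-seeding. SC3 clone cells (2500/well), transfected with wild-type androgen receptor, grew in charcoal-stripped serum medium lacking phenol red, induced with 10 ng/mL doxycycline or left uninduced.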

[2] = tested on: T47D cells; test: Cellular growth inhibition assay for T47D cells, CellTiter-Glo; format: cell-based, human; settings: 72 hours treatment, CellTiter-Glo 2.0 cell viability
How it was run: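 Cells are plated at 3000/well and allowed 24 h before treatment. Test compound in medium containing 0.5% DMSO is then added, with DMSO-only wells as negative control, and plates are incubated 72 h at 37 °C. ATP luminescence (CellTiter-Glo 2.0) is then fitted to four parameters to derive GI50.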

[3] = tested on: T-Rex 293 cell line SC3 cells lacking increased expression of androgen receptor protein; test: Cellular growth inhibition, T-Rex 293 SC3 cells without doxycycline, CellTiter-Glo; format: cell-based; settings: T-Rex 293 SC3 cells not exposed to doxycycline, CellTiter-Glo 2.0
How it was run: as §1

[4] = tested on: VCaP cells; test: Cellular growth inhibition assay for VCaP cells, CellTiter-Glo; format: cell-based, human; settings: 72 hours treatment, CellTiter-Glo 2.0
How it was run: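 GI50 values come from four-parameter curve fits of luminescence data normalized to a zero baseline. Compound, in medium with 0.5% DMSO, was added one day after plating and left for 72 h before CellTiter-Glo 2.0 addition.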

Compound | GI50 ([2]; Homo sapiens, T47D, 72 h) [nM] | GI50 ([4]; Homo sapiens, VCaP, 72 h) [nM] | GI50 [2] [nM] | GI50 [4] [nM] | GI50 ([1]; 72 h) [nM] | GI50 ([3]; 72 h) [nM] | GI50 ([1]; 72 hours) [nM] | GI50 ([3]; 72 hours) [nM]
CNc1ccc2c(n1)C(c1ccc(OC3CC4(CCN(c5ncc(C(=O)N[C@H]6C(C)(C)[C@H](Oc7ccc(C#N)c(Cl)c7)C6(C)C)cn5)CC4)C3)cc1)=NCc1onc(C)c1-2 [Compound I-232] | < 500 | < 500 | – | – | < 500 | > 3000 | – | –
Cc1sc2c(c1C)C(c1ccc(OC[C@H]3C[C@]4(CCCN(c5ncc(C(=O)N[C@H]6C(C)(C)[C@H](Oc7ccc(C#N)c(Cl)c7)C6(C)C)cn5)C4)C3)cc1)=N[C@@H](Cc1ncco1)c1nnc(C)n1-2 [Compound I-233] | < 500 | 500 to 1500 | – | – | < 500 | 1500 to 3000 | – | –
Cc1sc2c(c1C)C(c1ccc(N3CCN(C4CN(c5ncc(C(=O)NC6C(C)(C)C(Oc7ccc(C#N)c(Cl)c7)C6(C)C)cn5)C4)CC3)cc1)=N[C@@H](CC(=O)OC(C)(C)C)c1nnc(C)n1-2 (stereo partly drawn) [Compound I-236, tert-butyl 2-[(9S)-7-[4-[4-[1-[5-[[3-(3-chloro-4-cyano-phenoxy)-2,2,4,4-tetramethyl-cyclobutyl]carbamoyl]pyrimidin-2-yl]azetidin-3-yl]piperazin-1-yl]phenyl]-4,5,13-trimethyl-3-thia-1,8,11,12-tetrazatricyclo[8.3.0.02,6]trideca-2(6),4,7,10,12-pentaen-9-yl]acetate] | < 500 | < 500 | – | – | < 500 | 500 to 1500 | – | –
Cc1sc2c(c1C)C(c1ccc(CCN3CC[C@@]4(C3)CN(c3ncc(C(=O)N[C@H]5C(C)(C)[C@H](Oc6ccc(C#N)c(Cl)c6)C5(C)C)cn3)CCO4)cc1)=N[C@@H](Cc1ncco1)c1nnc(C)n1-2 [Compound I-243] | < 500 | < 500 | – | – | < 500 | < 500 | – | –
Cc1sc2c(c1C)C(c1ccc(C[C@H]3C[C@]4(CN(c5ncc(C(=O)N[C@H]6C(C)(C)[C@H](Oc7ccc(C#N)c(Cl)c7)C6(C)C)cn5)CCO4)C3)cc1)=N[C@@H](Cc1ncco1)c1nnc(C)n1-2 [Compound I-245] | < 500 | < 500 | – | – | < 500 | < 500 | – | –
Cc1sc2c(c1C)C(c1ccc(C3CN(C4CCN(c5ncc(C(=O)N[C@H]6C(C)(C)[C@H](Oc7ccc(C#N)c(Cl)c7)C6(C)C)cn5)CC4)C3)cc1)=N[C@@H](Cc1ncco1)c1nnc(C)n1-2 [Compound I-247] | < 500 | < 500 | – | – | < 500 | < 500 | – | –
Cc1sc2c(c1C)C(c1ccc(OC[C@@H]3CCCN(c4ncc(C(=O)N[C@H]5C(C)(C)[C@H](Oc6ccc(C#N)c(Cl)c6)C5(C)C)cn4)C3)cc1)=N[C@@H](Cc1ncco1)c1nnc(C)n1-2 [Compound I-254] | < 500 | < 500 | – | – | < 500 | < 500 | – | –
Cc1sc2c(c1C)C(c1ccc(C(=O)N3CC[C@@]4(CCCN(c5ncc(C(=O)N[C@H]6C(C)(C)[C@H](Oc7ccc(C#N)c(Cl)c7)C6(C)C)cn5)C4)C3)cc1)=N[C@@H](Cc1ncco1)c1nnc(C)n1-2 [Compound I-256] | > 3000 | > 3000 | – | – | > 3000 | > 3000 | – | –
Cc1sc2c(c1C)C(c1ccc(C(=O)N3CC[C@@]4(CCCN(c5ncc(C(=O)N[C@H]6C(C)(C)[C@H](Oc7ccc(C#N)c(Cl)c7)C6(C)C)cn5)C4)C3)cc1)=N[C@H](Cc1ncco1)c1nnc(C)n1-2 [Compound I-257] | 1500 to 3000 | > 3000 | – | – | < 500 | > 3000 | – | –
Cc1sc2c(c1C)C(c1ccc(C(=O)N3CC[C@]4(CCCN(c5ncc(C(=O)N[C@H]6C(C)(C)[C@H](Oc7ccc(C#N)c(Cl)c7)C6(C)C)cn5)C4)C3)cc1)=N[C@@H](Cc1ncco1)c1nnc(C)n1-2 [Compound I-258] | 1500 to 3000 | > 3000 | – | – | < 500 | > 3000 | – | –

Continued, in another order:

GI50 ([2]; Homo sapiens, T47D, 72 h) [nM] | GI50 ([4]; Homo sapiens, VCaP, 72 h) [nM] | GI50 [2] [nM] | GI50 [4] [nM] | Compound | GI50 ([1]; 72 h) [nM] | GI50 ([3]; 72 h) [nM] | GI50 ([1]; 72 hours) [nM] | GI50 ([3]; 72 hours) [nM]
> 3000 | > 3000 | – | – | CNc1ccc2c(n1)C(c1ccc(OC3CC4(CCCN(c5ncc(C(=O)N[C@H]6C(C)(C)[C@H](Oc7ccc(C#N)c(Cl)c7)C6(C)C)cn5)C4)C3)cc1)=NCc1onc(C)c1-2 [Compound I-231, N-[3-(3-chloro-4-cyano-phenoxy)-2,2,4,4-tetramethyl-cyclobutyl]-2-[2-[4-[3-methyl-12-(methylamino)-5-oxa-4,8,11-triazatricyclo [8.4.0.02,6]tetradeca-1(10),2(6),3,8,11,13-hexaen-9-yl]phenoxy]-6-azaspiro[3.5]nonan-6-yl]pyrimidine-5-carboxamide] | < 500 | > 3000 | – | –
< 500 | < 500 | – | – | Cc1sc2c(c1C)C(c1ccc(OC[C@H]3C[C@@]4(CCCN(c5ncc(C(=O)N[C@H]6C(C)(C)[C@H](Oc7ccc(C#N)c(Cl)c7)C6(C)C)cn5)C4)C3)cc1)=N[C@@H](Cc1ncco1)c1nnc(C)n1-2 [Compound I-234] | < 500 | 500 to 1500 | – | –
– | – | < 500 | < 500 | Cc1sc2c(c1C)C(c1ccc(C3CC3C3CC4(CCN(c5ncc(C(=O)N[C@H]6C(C)(C)[C@H](Oc7ccc(C#N)c(Cl)c7)C6(C)C)cn5)CC4)C3)cc1)=N[C@@H](Cc1ncco1)c1nnc(C)n1-2 (stereo partly shown) [Compound I-238] | – | – | < 500 | > 3000
> 3000 | > 3000 | – | – | Cc1sc2c(c1C)C(c1ccc(CC[C@H]3C[C@]4(CCCN(c5ncc(C(=O)N[C@H]6C(C)(C)[C@H](Oc7ccc(C#N)c(Cl)c7)C6(C)C)cn5)C4)C3)cc1)=N[C@@H](Cc1ncco1)c1nnc(C)n1-2 [Compound I-239] | > 3000 | > 3000 | – | –
> 3000 | > 3000 | – | – | Cc1sc2c(c1C)C(c1ccc(CC[C@H]3C[C@@]4(CCCN(c5ncc(C(=O)N[C@H]6C(C)(C)[C@H](Oc7ccc(C#N)c(Cl)c7)C6(C)C)cn5)C4)C3)cc1)=N[C@@H](Cc1ncco1)c1nnc(C)n1-2 [Compound I-240] | > 3000 | > 3000 | – | –
< 500 | < 500 | – | – | Cc1sc2c(c1C)C(c1ccc(CCN3CC[C@]4(C3)CN(c3ncc(C(=O)N[C@H]5C(C)(C)[C@H](Oc6ccc(C#N)c(Cl)c6)C5(C)C)cn3)CCO4)cc1)=N[C@@H](Cc1ncco1)c1nnc(C)n1-2 [Compound I-242] | < 500 | < 500 | – | –
> 3000 | > 3000 | – | – | Cc1sc2c(c1C)C(c1ccc(C[C@H]3C[C@@]4(CN(c5ncc(C(=O)N[C@H]6C(C)(C)[C@H](Oc7ccc(C#N)c(Cl)c7)C6(C)C)cn5)CCO4)C3)cc1)=N[C@@H](Cc1ncco1)c1nnc(C)n1-2 [Compound I-244] | < 500 | > 3000 | – | –
< 500 | < 500 | – | – | Cc1sc2c(c1C)C(c1ccc(CCCOC3CCN(c4ncc(C(=O)N[C@H]5C(C)(C)[C@H](Oc6ccc(C#N)c(Cl)c6)C5(C)C)cn4)CC3)cc1)=C[C@H](Cc1cccnc1)c1nnc(C)n1-2 [Compound I-246] | < 500 | > 3000 | – | –
> 3000 | > 3000 | – | – | Cc1sc2c(c1C)C(c1ccc(CC[C@H]3CC[C@@]4(CCCN(c5ncc(C(=O)N[C@H]6C(C)(C)[C@H](Oc7ccc(C#N)c(Cl)c7)C6(C)C)cn5)C4)C3)cc1)=N[C@@H](Cc1ncco1)c1nnc(C)n1-2 [Compound I-248] | > 3000 | > 3000 | – | –
> 3000 | > 3000 | – | – | Cc1sc2c(c1C)C(c1ccc(CC[C@@H]3CC[C@@]4(CCCN(c5ncc(C(=O)N[C@H]6C(C)(C)[C@H](Oc7ccc(C#N)c(Cl)c7)C6(C)C)cn5)C4)C3)cc1)=N[C@@H](Cc1ncco1)c1nnc(C)n1-2 [Compound I-249] | > 3000 | > 3000 | – | –
< 500 | < 500 | – | – | Cc1sc2c(c1C)C(c1ccc(CC[C@@H]3CC[C@]4(CCCN(c5ncc(C(=O)N[C@H]6C(C)(C)[C@H](Oc7ccc(C#N)c(Cl)c7)C6(C)C)cn5)C4)C3)cc1)=N[C@@H](Cc1ncco1)c1nnc(C)n1-2 [Compound I-250] | < 500 | > 3000 | – | –
< 500 | < 500 | – | – | Cc1sc2c(c1C)C(c1ccc(CC[C@H]3CC[C@]4(CCCN(c5ncc(C(=O)N[C@H]6C(C)(C)[C@H](Oc7ccc(C#N)c(Cl)c7)C6(C)C)cn5)C4)C3)cc1)=N[C@H](Cc1ncco1)c1nnc(C)n1-2 [Compound I-251] | < 500 | > 3000 | – | –
< 500 | > 3000 | – | – | Cc1sc2c(c1C)C(c1ccc(CC[C@@H]3CC[C@@]4(CCCN(c5ncc(C(=O)N[C@H]6C(C)(C)[C@H](Oc7ccc(C#N)c(Cl)c7)C6(C)C)cn5)C4)C3)cc1)=N[C@H](Cc1ncco1)c1nnc(C)n1-2 [Compound I-252] | < 500 | > 3000 | – | –
500 to 1500 | < 500 | – | – | Cc1sc2c(c1C)C(c1ccc(O[C@H]3CCCN(c4ncc(C(=O)N[C@H]5C(C)(C)[C@H](Oc6ccc(C#N)c(Cl)c6)C5(C)C)cn4)C3)cc1)=N[C@@H](Cc1ncco1)c1nnc(C)n1-2 [Compound I-253] | < 500 | < 500 | – | –
< 500 | < 500 | – | – | Cc1sc2c(c1C)C(c1ccc(OC[C@H]3CCCN(c4ncc(C(=O)N[C@H]5C(C)(C)[C@H](Oc6ccc(C#N)c(Cl)c6)C5(C)C)cn4)C3)cc1)=N[C@@H](Cc1ncco1)c1nnc(C)n1-2 [Compound I-255] | < 500 | < 500 | – | –
